Results on two compounds are retold here after patent US9850343B2, “Method for producing liquid crystalline polyester, and liquid crystalline polyester” (TORAY Industries, Inc., priority 2013, dated 2017).

Structures are written as SMILES.

The nature of the data set: Acid dissociation constant (pKa) in aqueous sulfonic acid solution. The data set is classed as physicochemical. The settings on record: aqueous sulfonic acid solution titrated at 25° C. with aqueous sodium hydroxide; from pH at 50% neutralization. The protocol:
Examples of the method for measuring pKa include a method in which an aqueous aliphatic sulfonic acid solution is titrated with a titrant such as sodium hydroxide at 25° C., and pKa is calculated from the pH value at the time point when 50% neutralization was achieved.
(7) Acid Dissociation Constant (pKa) in Aqueous Sulfonic Acid Solution
The aqueous sulfonic acid solution used in each of Examples and Comparative Examples was subjected to titration at 25° C. using an aqueous sodium hydroxide solution, and the acid dissociation constant was calculated based on the pH value at the time point when 50% neutralization was achieved.

As to `CCS(=O)(=O)O` [ethanesulfonic acid], the pKa was -1.3. The compound `CCCCCCCCCCCCS(=O)(=O)O` [n-dodecylsulfonic acid] had a pKa of 0.3.

A word on the pKa: it is the negative logarithm of the acid dissociation constant. A lower pKa goes with a stronger acid or weaker base.
